# Laboratory results as given in patent US9278962B2 (Cytokinetics, Inc., priority 2011, dated 2016).
# System: rabbit skeletal myofibrils (approximately 90% fast fibers)
# Experiment: Activation of fast skeletal myofibrils (PUMA coupled-enzyme ATPase assay, AC1.4)
# Assay type: biochemical
# Details: Table 2; concentration at which the compound increased enzymatic activity by 40%; calcium at pCa25
row,SMILES,Mean AC1.4
1,"COc1cccc(Cc2nsc(NCCc3cccc(C(F)(F)F)c3)n2)c1 [{3-[(3-methoxyphenyl)methyl](1,2,4-thiadiazol-5-yl)}{2-[3-(trifluoromethyl)phenyl]ethyl}amine]",D (D=>20 uM)
2,"Fc1ccc(Cc2nsc(NCCc3ccccn3)n2)cc1 [{3-[(4-fluorophenyl)methyl](1,2,4-thiadiazol-5-yl)}(2-(2-pyridyl)ethyl)amine]",D (D=>20 uM)
3,"Fc1ccc(Cc2nsc(NCCc3cccnc3)n2)cc1 [{3-[(4-fluorophenyl)methyl](1,2,4-thiadiazol-5-yl)}(2-(3-pyridyl)ethyl)amine]",D (D=>20 uM)
4,"Fc1ccc(Cc2nsc(NCCc3ccccc3)n2)cc1 [{3-[(4-fluorophenyl)methyl](1,2,4-thiadiazol-5-yl)}(2-phenylethyl)amine]",D (D=>20 uM)
5,"CC(C)CCNc1nc(Cc2ccc(F)cc2)ns1 [{3-[(4-fluorophenyl)methyl](1,2,4-thiadiazol-5-yl)}(3-methylbutyl)amine]",D (D=>20 uM)
6,"CC(=O)OCC(=O)NCCCc1nsc(NCC(C)(C)c2ccc(F)cc2)n1 [{N-[3-(5-{[2-(4-fluorophenyl)-2-methylpropyl]amino}-1,2,4-thiadiazol-3-yl)propyl]carbamoyl}methyl acetate]",C (C=10-20 uM)

# Results, then the compound that gave them:
row,Mean AC1.4,SMILES
1,D (D=>20 uM),"CC(C)(C)OC(=O)N1CCN(Cc2nsc(NCC(C)(C)c3ccc(F)cc3)n2)CC1 [tert-butyl 4-[(5-{[2-(4-fluorophenyl)-2-methylpropyl]amino}-1,2,4-thiadiazol-3-yl)methyl]piperazinecarboxylate]"
2,D (D=>20 uM),"CN(C)CCNc1nsc(NCC(C)(C)c2ccc(F)cc2)n1 [{2-[(5-{[2-(4-fluorophenyl)-2-methylpropyl]amino}(1,2,4-thiadiazol-3-yl))amino]ethyl}dimethylamine]"
3,D (D=>20 uM),"COc1cccc(Cc2nsc(NCCc3nc(C)cs3)n2)c1 [{3-[(3-methoxyphenyl)methyl](1,2,4-thiadiazol-5-yl)}[2-(4-methyl(1,3-thiazol-2-yl))ethyl]amine]"
4,D (D=>20 uM),"Fc1ccc(Cc2nsc(NCCc3ccncc3)n2)cc1 [{3-[(4-fluorophenyl)methyl](1,2,4-thiadiazol-5-yl)}(2-(4-pyridyl)ethyl)amine]"
5,D (D=>20 uM),"COc1ccc(CCNc2nc(Cc3ccc(F)cc3)ns2)cc1 [{3-[(4-fluorophenyl)methyl](1,2,4-thiadiazol-5-yl)}[2-(4-methoxyphenyl)ethyl]amine]"
6,D (D=>20 uM),"Cc1csc(CCNc2nc(Cc3ccc(F)cc3)ns2)n1 [{3-[(4-fluorophenyl)methyl](1,2,4-thiadiazol-5-yl)}[2-(4-methyl(1,3-thiazol-2-yl))ethyl]amine]"
7,B (B=1-10 uM),"Fc1cccnc1C1(CNc2nc(-c3ccccc3)ns2)CCC1 [{[(3-fluoro(2-pyridyl))cyclobutyl]methyl}(3-phenyl(1,2,4-thiadiazol-5-yl))amine]"
